Test results as given in the supplement of paper PMC6411743.

Compound: Nc1ncnc2c1ncn2[C@@H]1O[C@H](COP(=O)(O)OP(=O)(O)OP(=O)(O)O)[C@@H](O)[C@H]1O [adenosine triphosphate]
Assay: pEC50 of ATP-induced change in protein thermal stability (2D-TPP)
How it was run: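 Each of three independent experiments used Jurkat crude lysate given five concentrations including vehicle (10 min, room temperature), followed by 3 min at one of 12 temperatures from 42 to 63.9 °C and NP40 with benzonase (60 min, 4 °C). TMT LC-MS/MS quantified soluble protein after ultracentrifugation, expressed as fold changes against vehicle at each temperature with median normalisation. For pEC50, dose-response curves were fitted per replicate over adjacent temperature pairs, and hits were called through permutation-based false discovery rate control.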
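Further: lysate dosed with Na-ATP at 0 0.005 0.05 0.5 and 2 mM.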

Chain of UniProt Q147X3 (Q147X3 whole entry): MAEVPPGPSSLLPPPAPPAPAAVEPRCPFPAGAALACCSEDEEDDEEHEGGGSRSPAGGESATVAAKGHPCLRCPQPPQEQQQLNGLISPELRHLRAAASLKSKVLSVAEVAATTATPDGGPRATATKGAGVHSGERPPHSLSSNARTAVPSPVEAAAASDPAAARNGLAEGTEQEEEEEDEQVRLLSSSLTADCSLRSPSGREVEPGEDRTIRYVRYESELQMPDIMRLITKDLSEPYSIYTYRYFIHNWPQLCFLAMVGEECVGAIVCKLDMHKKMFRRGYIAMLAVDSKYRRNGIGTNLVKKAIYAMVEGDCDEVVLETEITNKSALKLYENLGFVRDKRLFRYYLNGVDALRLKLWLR
Chain of UniProt O15066 (O15066 whole entry): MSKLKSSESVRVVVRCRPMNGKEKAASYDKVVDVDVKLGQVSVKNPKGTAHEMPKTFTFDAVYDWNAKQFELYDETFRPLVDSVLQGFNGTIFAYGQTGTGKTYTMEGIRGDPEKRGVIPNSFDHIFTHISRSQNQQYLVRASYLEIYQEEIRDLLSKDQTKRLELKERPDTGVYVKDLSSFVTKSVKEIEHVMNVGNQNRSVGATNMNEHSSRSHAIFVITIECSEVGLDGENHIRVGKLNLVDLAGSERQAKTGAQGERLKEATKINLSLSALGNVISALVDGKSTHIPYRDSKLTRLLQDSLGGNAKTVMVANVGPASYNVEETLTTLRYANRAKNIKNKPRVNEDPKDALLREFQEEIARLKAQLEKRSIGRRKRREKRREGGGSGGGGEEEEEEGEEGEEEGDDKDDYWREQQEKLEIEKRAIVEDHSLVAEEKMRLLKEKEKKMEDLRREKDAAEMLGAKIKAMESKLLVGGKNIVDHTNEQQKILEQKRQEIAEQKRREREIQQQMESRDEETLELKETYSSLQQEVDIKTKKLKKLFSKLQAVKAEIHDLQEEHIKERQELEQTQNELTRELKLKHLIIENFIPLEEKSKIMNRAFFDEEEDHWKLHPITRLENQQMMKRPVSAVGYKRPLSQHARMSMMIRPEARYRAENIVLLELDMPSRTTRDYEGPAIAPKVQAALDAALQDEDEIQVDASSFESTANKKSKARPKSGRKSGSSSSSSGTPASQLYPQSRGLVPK
Chain of UniProt P12956 (P12956 whole entry): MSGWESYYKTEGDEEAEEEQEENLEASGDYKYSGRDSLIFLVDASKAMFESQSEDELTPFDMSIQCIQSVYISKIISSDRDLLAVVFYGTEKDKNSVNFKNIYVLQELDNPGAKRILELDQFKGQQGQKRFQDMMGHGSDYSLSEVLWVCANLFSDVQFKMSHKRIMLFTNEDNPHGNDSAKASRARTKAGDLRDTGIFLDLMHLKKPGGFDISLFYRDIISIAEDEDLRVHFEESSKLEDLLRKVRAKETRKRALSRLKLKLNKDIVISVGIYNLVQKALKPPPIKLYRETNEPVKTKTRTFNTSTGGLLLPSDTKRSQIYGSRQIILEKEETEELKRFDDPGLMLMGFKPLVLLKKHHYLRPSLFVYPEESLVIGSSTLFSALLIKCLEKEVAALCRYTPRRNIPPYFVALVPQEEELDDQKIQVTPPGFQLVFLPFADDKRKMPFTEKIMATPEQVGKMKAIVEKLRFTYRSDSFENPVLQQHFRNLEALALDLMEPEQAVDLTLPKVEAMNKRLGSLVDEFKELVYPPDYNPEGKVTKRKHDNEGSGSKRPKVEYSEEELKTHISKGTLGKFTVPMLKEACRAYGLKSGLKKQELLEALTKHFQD
Chain of UniProt Q15046 (Q15046 whole entry, looked up): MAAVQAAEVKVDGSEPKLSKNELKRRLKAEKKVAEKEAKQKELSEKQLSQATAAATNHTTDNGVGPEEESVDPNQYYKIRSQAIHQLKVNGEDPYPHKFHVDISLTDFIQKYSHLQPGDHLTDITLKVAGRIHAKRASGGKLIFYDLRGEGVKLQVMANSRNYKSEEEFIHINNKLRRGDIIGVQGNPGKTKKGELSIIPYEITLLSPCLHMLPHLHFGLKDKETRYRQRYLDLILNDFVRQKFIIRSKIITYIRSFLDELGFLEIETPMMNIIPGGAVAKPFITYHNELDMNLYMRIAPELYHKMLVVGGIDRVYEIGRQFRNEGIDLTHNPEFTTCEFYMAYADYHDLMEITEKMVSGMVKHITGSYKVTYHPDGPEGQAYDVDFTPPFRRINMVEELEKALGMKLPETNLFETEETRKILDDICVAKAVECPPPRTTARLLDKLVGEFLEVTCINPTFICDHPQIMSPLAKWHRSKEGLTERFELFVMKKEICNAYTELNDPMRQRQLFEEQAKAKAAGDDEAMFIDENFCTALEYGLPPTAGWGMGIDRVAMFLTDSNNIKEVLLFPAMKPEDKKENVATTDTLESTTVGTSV
Chain of UniProt O75165 (O75165 whole entry): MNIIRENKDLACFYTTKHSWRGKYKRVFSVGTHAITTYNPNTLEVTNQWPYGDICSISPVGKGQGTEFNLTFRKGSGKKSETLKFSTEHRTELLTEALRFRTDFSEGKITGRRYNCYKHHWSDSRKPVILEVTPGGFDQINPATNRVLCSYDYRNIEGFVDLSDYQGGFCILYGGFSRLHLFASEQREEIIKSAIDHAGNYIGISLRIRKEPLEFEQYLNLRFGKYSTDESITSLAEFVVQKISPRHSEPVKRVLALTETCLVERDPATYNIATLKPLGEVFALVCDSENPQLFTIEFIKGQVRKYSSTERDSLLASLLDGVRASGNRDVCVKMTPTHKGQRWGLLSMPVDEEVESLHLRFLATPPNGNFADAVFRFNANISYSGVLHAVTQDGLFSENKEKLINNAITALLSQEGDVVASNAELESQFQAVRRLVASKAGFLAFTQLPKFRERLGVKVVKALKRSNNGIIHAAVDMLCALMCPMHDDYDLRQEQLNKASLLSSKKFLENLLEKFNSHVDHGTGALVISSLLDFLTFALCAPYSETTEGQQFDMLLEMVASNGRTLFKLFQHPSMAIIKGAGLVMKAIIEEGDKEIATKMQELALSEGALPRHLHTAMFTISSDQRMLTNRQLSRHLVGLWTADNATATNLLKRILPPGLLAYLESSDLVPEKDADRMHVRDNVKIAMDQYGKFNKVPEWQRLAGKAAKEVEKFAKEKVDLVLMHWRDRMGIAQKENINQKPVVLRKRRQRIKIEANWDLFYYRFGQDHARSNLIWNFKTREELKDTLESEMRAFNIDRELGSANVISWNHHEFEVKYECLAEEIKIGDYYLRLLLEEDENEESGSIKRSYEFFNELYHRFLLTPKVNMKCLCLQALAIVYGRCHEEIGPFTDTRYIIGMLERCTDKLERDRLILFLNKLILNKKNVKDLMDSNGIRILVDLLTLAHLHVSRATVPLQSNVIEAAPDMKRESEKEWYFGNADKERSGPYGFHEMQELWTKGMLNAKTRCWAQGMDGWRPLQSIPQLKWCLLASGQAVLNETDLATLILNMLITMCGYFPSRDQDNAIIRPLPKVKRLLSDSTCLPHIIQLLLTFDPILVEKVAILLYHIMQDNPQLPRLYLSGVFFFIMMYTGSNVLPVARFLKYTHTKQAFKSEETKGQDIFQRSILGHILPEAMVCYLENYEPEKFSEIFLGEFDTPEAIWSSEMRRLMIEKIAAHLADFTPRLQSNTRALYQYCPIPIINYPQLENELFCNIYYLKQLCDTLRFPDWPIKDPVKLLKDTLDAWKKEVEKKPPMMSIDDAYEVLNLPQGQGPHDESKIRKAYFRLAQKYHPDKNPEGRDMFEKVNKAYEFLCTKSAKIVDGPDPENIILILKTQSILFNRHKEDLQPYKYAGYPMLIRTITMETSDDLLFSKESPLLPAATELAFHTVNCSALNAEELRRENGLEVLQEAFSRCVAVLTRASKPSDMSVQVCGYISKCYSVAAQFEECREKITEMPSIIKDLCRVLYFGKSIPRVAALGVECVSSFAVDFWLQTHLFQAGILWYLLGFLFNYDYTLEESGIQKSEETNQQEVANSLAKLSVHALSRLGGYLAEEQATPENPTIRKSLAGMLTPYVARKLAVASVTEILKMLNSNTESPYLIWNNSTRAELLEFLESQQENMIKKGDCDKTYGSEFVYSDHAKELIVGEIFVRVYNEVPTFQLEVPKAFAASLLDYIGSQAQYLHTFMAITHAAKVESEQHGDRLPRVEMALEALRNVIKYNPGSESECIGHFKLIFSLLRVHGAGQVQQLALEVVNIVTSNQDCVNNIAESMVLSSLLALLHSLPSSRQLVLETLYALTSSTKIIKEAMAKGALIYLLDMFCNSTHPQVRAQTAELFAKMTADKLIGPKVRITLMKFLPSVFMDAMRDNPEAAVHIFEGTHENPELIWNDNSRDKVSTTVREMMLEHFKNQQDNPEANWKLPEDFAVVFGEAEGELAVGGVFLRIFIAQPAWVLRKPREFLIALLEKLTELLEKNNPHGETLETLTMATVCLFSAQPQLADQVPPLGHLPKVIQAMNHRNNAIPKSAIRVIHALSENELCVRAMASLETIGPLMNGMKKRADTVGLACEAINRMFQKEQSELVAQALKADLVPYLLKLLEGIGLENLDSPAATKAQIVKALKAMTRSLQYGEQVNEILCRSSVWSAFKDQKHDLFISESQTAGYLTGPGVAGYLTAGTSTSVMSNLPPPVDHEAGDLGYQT
Chain of UniProt P57088 (P57088 whole entry): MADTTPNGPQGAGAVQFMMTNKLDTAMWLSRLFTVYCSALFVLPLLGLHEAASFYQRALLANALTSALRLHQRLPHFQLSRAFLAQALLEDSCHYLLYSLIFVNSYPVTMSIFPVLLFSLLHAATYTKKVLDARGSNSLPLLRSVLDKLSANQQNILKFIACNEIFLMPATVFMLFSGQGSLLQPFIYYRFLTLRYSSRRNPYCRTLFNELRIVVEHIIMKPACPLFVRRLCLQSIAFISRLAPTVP
Chain of UniProt P30043 (P30043 whole entry): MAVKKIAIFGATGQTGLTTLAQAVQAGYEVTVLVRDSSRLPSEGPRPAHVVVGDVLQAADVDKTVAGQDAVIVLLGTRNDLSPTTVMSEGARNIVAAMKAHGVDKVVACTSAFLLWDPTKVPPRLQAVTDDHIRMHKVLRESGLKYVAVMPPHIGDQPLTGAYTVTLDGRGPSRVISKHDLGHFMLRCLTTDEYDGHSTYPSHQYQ

Row | Target | pEC50
1 | USP5 (effect direction: stabilized) (UniProt P45974) | < 2.7
2 | NCAPD2 (effect direction: stabilized) (UniProt Q15021) | 3.56
3 | BLVRB (effect direction: stabilized) (UniProt P30043) | 2.87
4 | NEK9 (effect direction: stabilized) (UniProt Q8TD19) | 3.19
5 | KIF21B (effect direction: stabilized) (UniProt O75037) | 3.38
6 | SMC1A (effect direction: stabilized) (UniProt Q14683) | 3.41
7 | SMC3 (effect direction: stabilized) (UniProt Q9UQE7) | 3.41
8 | LCLAT1 (effect direction: stabilized) (UniProt Q6UWP7) | 3.56
9 | VARS2 (effect direction: stabilized) (UniProt Q5ST30) | 3.22
10 | MAGED2 (effect direction: destabilized) (UniProt Q9UNF1) | 3.7
11 | CHD1 (effect direction: stabilized) (UniProt O14646) | < 2.7
12 | SRPK1 (effect direction: stabilized) (UniProt Q96SB4) | 3.64
13 | ALDH5A1 (effect direction: stabilized) (UniProt P51649) | 3.06
14 | UniProt Q92615 (effect direction: stabilized) | 3.16
15 | ELAVL1 (effect direction: stabilized) (UniProt Q15717) | 3.02
16 | ANKMY2 (effect direction: stabilized) (UniProt Q8IV38) | < 2.7
17 | RAD21 (effect direction: stabilized) (UniProt O60216) | 3.6
18 | RPL27A (effect direction: destabilized) (UniProt P46776) | 3.2
19 | DNAJA2 (effect direction: stabilized) (UniProt O60884) | < 2.7
20 | KIF3B (effect direction: stabilized) (UniProt O15066) | 4.07
21 | GGPS1 (effect direction: destabilized) (UniProt O95749) | 2.94
22 | EMG1 (effect direction: stabilized) (UniProt Q92979) | 5.25
23 | PRPS2 (effect direction: stabilized) (UniProt P11908) | 3.33

Row | Target | pEC50
24 | AFF4 (effect direction: stabilized) (UniProt Q9UHB7) | 3.8
25 | HUWE1 (effect direction: stabilized) (UniProt Q7Z6Z7) | < 2.7
26 | MAP4K5 (effect direction: stabilized) (UniProt Q9Y4K4) | 3.41
27 | PRDX6 (effect direction: stabilized) (UniProt P30041) | < 2.7
28 | SRRM2 (effect direction: stabilized) (UniProt Q9UQ35) | < 2.7
29 | ATAD2B (effect direction: destabilized) (UniProt Q9ULI0) | 3.06
30 | ADRM1 (effect direction: stabilized) (UniProt Q16186) | 4.04
31 | UniProt Q08623 (effect direction: destabilized) | < 2.7
32 | UniProt P62280 (effect direction: destabilized) | 4.05
33 | UniProt P61254 (effect direction: destabilized) | < 2.7
34 | CCNB1 (effect direction: stabilized) (UniProt P14635) | 4.27
35 | DNMT1 (effect direction: destabilized) (UniProt P26358) | 2.98
36 | THOC1 (effect direction: stabilized) (UniProt Q96FV9) | < 2.7
37 | RPL17 (effect direction: destabilized) (UniProt P18621) | 3.27
38 | PATL1 (effect direction: stabilized) (UniProt Q86TB9) | 2.83
39 | NUMB (effect direction: stabilized) (UniProt P49757) | 3.45
40 | RABGAP1 (effect direction: stabilized) (UniProt Q9Y3P9) | < 2.7
41 | XRCC6 (effect direction: stabilized) (UniProt P12956) | < 2.7
42 | DNAJC13 (effect direction: stabilized) (UniProt O75165) | 2.86
43 | TOR1A (effect direction: stabilized) (UniProt O14656) | 4.09
44 | SHPK (effect direction: stabilized) (UniProt Q9UHJ6) | 2.83
45 | HSPA9 (effect direction: stabilized) (UniProt P38646) | 3.94
46 | SMARCA5 (effect direction: stabilized) (UniProt O60264) | 4.03

Row | Target | pEC50
47 | GLRX3 (effect direction: stabilized) (UniProt O76003) | < 2.7
48 | LARP1 (effect direction: stabilized) (UniProt Q6PKG0) | < 2.7
49 | DDX49 (effect direction: stabilized) (UniProt Q9Y6V7) | 3.93
50 | UniProt Q9BQ61 (effect direction: destabilized) | 3.66
51 | ARHGAP1 (effect direction: stabilized) (UniProt Q07960) | 3.14
52 | ALDH6A1 (effect direction: stabilized) (UniProt Q02252) | 3.53
53 | MED20 (effect direction: stabilized) (UniProt Q9H944) | < 2.7
54 | DLGAP5 (effect direction: destabilized) (UniProt Q15398) | 2.82
55 | UniProt Q14004 (effect direction: stabilized) | 3.59
56 | DHX40 (effect direction: stabilized) (UniProt Q8IX18) | 3.44
57 | USP47 (effect direction: stabilized) (UniProt Q96K76) | < 2.7
58 | PRKCH (effect direction: stabilized) (UniProt P24723) | 3.5
59 | TMEM33 (effect direction: stabilized) (UniProt P57088) | 3.04
60 | DCPS (effect direction: stabilized) (UniProt Q96C86) | < 2.7
61 | STXBP2 (effect direction: stabilized) (UniProt Q15833) | < 2.7
62 | CPSF1 (effect direction: stabilized) (UniProt Q10570) | < 2.7
63 | AGPAT5 (effect direction: stabilized) (UniProt Q9NUQ2) | 3.89
64 | HNRNPR (effect direction: stabilized) (UniProt O43390) | 3.04
65 | UniProt Q9Y530 (effect direction: stabilized) | 2.97
66 | UniProt Q15046 (effect direction: stabilized) | 3.22
67 | UniProt Q6ZUM4 (effect direction: stabilized) | 3.74
68 | EIF4G2 (effect direction: stabilized) (UniProt P78344) | < 2.7
69 | SF3A3 (effect direction: stabilized) (UniProt Q12874) | < 2.7

Row | Target | pEC50
70 | CAPN1 (effect direction: stabilized) (UniProt P07384) | 3.17
71 | MEPCE (effect direction: stabilized) (UniProt Q7L2J0) | 2.82
72 | CYB5R1 (effect direction: stabilized) (UniProt Q9UHQ9) | < 2.7
73 | EIF2B3 (effect direction: stabilized) (UniProt Q9NR50) | 3.82
74 | UBA2 (effect direction: stabilized) (UniProt Q9UBT2) | < 2.7
75 | UniProt P06493 (effect direction: stabilized) | 2.93
76 | DUS3L (effect direction: stabilized) (UniProt Q96G46) | 2.91
77 | CPSF2 (effect direction: stabilized) (UniProt Q9P2I0) | < 2.7
78 | DDHD2 (effect direction: stabilized) (UniProt O94830) | < 2.7
79 | RSBN1L (effect direction: stabilized) (UniProt Q6PCB5) | 3.21
80 | UniProt P61956 (effect direction: destabilized) | 3.07
81 | UniProt Q9NZM5 (effect direction: destabilized) | 2.72
82 | UniProt Q9Y2K2 (effect direction: stabilized) | 3.43
83 | PDCL3 (effect direction: destabilized) (UniProt Q9H2J4) | 4.16
84 | SLC27A4 (effect direction: stabilized) (UniProt Q6P1M0) | 3.05
85 | PPA2 (effect direction: destabilized) (UniProt Q9H2U2) | < 2.7
86 | UniProt Q9UPN7 (effect direction: stabilized) | 2.97
87 | ANXA5 (effect direction: stabilized) (UniProt P08758) | 2.79
88 | KIF2C (effect direction: stabilized) (UniProt Q99661) | 4.18
89 | CDK2 (effect direction: stabilized) (UniProt P24941) | 3.13
90 | PEX6 (effect direction: stabilized) (UniProt Q13608) | 4.03
91 | CCDC86 (effect direction: stabilized) (UniProt Q9H6F5) | < 2.7
92 | UniProt Q147X3 (effect direction: stabilized) | 2.88
